Data: patent US20080279769A1, “Enzyme Inhibitor Imaging Agents” (priority 2004, published 2008)
One block for each compound: values may come before it.

How the values were obtained:
MMP-1 = molecular target: T1, MMP-1 (Homo sapiens, UniProt P03956); experiment: In vitro metalloproteinase inhibition assay (colorimetric, thiopeptolide substrate), MMP-1; assay type: biochemical
T1 sequence (P03956 100-469): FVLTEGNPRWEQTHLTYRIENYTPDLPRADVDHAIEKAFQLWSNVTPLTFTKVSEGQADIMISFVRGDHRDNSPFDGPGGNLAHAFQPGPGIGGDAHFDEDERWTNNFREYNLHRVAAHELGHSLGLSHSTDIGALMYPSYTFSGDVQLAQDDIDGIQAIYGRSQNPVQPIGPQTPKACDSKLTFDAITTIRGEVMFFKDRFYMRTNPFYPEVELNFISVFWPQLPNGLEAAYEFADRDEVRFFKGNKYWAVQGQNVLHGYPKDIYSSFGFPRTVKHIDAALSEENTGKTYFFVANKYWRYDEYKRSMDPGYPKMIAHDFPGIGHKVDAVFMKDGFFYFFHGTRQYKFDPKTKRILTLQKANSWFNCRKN
Description: [The source words this procedure for another target and reports this target under the same test.] (§1) Compounds were screened using the following commercially available Biomol assay kits:
(§2) MMP-2 colorimetric assay kit-Catalogue number AK-408, MMP-9 colorimetric assay kit-Catalogue number AK-410, MMP-12 colorimetric assay kit-Catalogue number AK-402, Which are available from Affiniti Research Products Ltd. (Palatine House, Matford Court, Exeter, EX2 8NL, UK).
(§3) Inhibitors were provided in powdered form, and stored at 4° C. For each inhibitor a 1 mM stock solution in DMSO was prepared, dispensed into 20 μl aliquots and these aliquots stored at −20° C. The stock solution was diluted to give 8 inhibitor concentrations (recommended: 50 μM, 5 μM, 500 mM, 50 mM, 5 nM, 500 μM, 50 μM and 5 μM). Dilutions were made in the kit assay buffer. A five-fold dilution of the inhibitor stocks is made on addition to the assay wells, therefore final concentration range was from 10 μM to 1 pM.
(§4) Details are provided with the commercial kit, but can be summarised as follows: • Prepare test compound dilutions as above, • Add assay buffer to plate, • Add test compounds to plate • Prepare standard kit inhibitor NNGH (see kit for dilution factor) • Add NNGH to control inhibitor wells • Prepare MMP enzyme (see kit for dilution factor) • Add MMP to plate • Incubate plate at 37° C. for ˜15 min • Prepare thiopeptolide substrate (see kit for dilution factor) • Add substrate to plate • Count every 2 min for 1 hr, 37° C., 414 nm on a Labsystems iEMS plate reader.

MMP-12 = MMP-12 (Homo sapiens, UniProt P39900); experiment: In vitro metalloproteinase inhibition assay (Biomol MMP-12 colorimetric assay kit); assay type: biochemical
Description: as §1, §2, §3, §4

MMP-2 = MMP-2 (Homo sapiens, UniProt P08253); experiment: In vitro metalloproteinase inhibition assay (Biomol MMP-2 colorimetric assay kit); assay type: biochemical
Description: as §1
as §3, with “The stock solution was diluted to give 8 inhibitor concentrations (recommended: 50 μM, 5 μM, 500 mM, 50 mM, 5 nM, 500 μM, 50 μM and 5 μM).” left out

MMP-9 = MMP-9 (Homo sapiens, UniProt P14780); experiment: In vitro metalloproteinase inhibition assay (Biomol MMP-9 colorimetric assay kit); assay type: biochemical
Description: as §1
as §3, with “The stock solution was diluted to give 8 inhibitor concentrations (recommended: 50 μM, 5 μM, 500 mM, 50 mM, 5 nM, 500 μM, 50 μM and 5 μM).” left out

MMP-8 = MMP-8 (Homo sapiens, UniProt P22894); experiment: In vitro metalloproteinase inhibition assay (colorimetric, thiopeptolide substrate), MMP-8; assay type: biochemical
Description: [The source words this procedure for another target and reports this target under the same test.] as §1, §2
as §3, with “A five-fold dilution of the inhibitor stocks is made on addition to the assay wells, therefore final concentration range was from 10 μM to 1 pM.” left out
as §4

ApoE ligation model = experiment: Biodistribution in ApoE ligated animal model of MMP expression; assay type: in vivo, mice; conditions: for Carotid: Blood / Carotid: Heart: ratio
Source text: The ApoE ligation model was also studied. ApoE mice are transgenic knock-out mice, which lack the ApoE gene, and are therefore unable to regulate their plasma cholesterol levels. As a consequence ApoE mice develop atherosclerotic lesions, a process which is accelerated with feeding of high fat diet. Further acceleration of lesion development can be achieved by ligating the carotid artery, resulting in advanced lesion formation within 4 weeks of surgery and high fat diet feeding. […] 105, 2686-2691 (2002)].

MMP-2, sequence (P08253 110-446 limits assumed): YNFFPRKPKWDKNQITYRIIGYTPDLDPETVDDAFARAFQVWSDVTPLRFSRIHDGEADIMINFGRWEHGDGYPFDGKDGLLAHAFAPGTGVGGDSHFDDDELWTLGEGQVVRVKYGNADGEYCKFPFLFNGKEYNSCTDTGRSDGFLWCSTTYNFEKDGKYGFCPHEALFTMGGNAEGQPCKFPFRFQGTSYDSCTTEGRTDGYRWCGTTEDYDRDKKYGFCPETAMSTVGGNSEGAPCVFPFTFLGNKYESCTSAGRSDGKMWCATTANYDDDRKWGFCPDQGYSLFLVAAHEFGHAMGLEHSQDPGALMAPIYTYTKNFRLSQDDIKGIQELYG
MMP-9, sequence (P14780 107-444 limits assumed): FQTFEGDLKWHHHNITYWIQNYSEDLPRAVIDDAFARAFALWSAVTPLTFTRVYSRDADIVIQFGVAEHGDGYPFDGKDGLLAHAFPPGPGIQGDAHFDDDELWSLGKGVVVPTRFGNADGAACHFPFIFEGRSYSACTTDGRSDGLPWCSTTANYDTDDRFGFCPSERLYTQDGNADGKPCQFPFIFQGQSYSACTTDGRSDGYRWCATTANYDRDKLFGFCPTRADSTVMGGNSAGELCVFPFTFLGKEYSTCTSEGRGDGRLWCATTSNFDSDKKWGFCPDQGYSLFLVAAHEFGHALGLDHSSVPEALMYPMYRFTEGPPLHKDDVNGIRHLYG
MMP-12, sequence (P39900 106-263 limits assumed): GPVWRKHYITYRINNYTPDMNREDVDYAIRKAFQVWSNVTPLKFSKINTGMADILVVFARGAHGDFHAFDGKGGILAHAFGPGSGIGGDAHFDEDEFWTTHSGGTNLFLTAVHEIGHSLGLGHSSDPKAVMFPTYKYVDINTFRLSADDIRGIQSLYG
MMP-8, sequence (P22894 101-467): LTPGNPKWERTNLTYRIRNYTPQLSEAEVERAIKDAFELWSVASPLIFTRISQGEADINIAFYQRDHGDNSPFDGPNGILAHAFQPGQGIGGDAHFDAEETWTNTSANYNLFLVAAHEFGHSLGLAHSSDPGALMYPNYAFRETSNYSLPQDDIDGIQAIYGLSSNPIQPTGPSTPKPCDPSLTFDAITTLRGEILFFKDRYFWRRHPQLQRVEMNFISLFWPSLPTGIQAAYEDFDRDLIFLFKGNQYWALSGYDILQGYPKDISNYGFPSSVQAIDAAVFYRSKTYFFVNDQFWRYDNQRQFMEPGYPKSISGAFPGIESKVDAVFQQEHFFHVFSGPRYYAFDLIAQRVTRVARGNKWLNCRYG

Structure (SMILES): CC(C)CC(CC(=O)NC(Cc1c[nH]c2ccccc12)C(=O)NCCOCCOCCOCCOCCOCCOCCOCCOCCOCCOCCOCCOCCC(=O)NCc1ccc(I)cc1)C(=O)NO (stereo not shown) [Compound 14]
Ki (MMP-1): 2.68 ± 0.19 nM | Ki (MMP-8): 0.082 nM | Ki (MMP-12): 0.51 nM | Ki (MMP-2): 0.21 ± 0.05 nM | Ki (MMP-9): 0.04 ± 0.03 nM

Structure (SMILES): CC(C)CC(CC(=O)NO)C(=O)NC(Cc1c[nH]c2ccccc12)C(=O)NCCOCCOCCOCCOCCOCCOCCOCCOCCOCCOCCOCCOCCC(=O)NCc1ccc(I)cc1 (stereo not shown) [Compound 16]
Ki (MMP-1): 18 ± 1.69 nM | Ki (MMP-12): 0.4 ± 0.09 nM | Ki (MMP-2): 0.61 ± 0.16 nM | Ki (MMP-9): 0.5 ± 0.42 nM

Structure (SMILES): CC(C)C[C@H](CC(=O)N[C@@H](C)C(=O)NCc1ccc([123I])cc1)C(=O)NO [Compound 18A]
% ID/g Blood (ApoE ligation model; 5 min post injection): 7.3 % ID/g | % ID/g Carotid (ApoE ligation model; 5 min post injection): 2.9 % ID/g | % ID/g Heart (ApoE ligation model; 5 min post injection): 10.1 % ID/g | % ID/g Blood (ApoE ligation model; 120 min post injection): 2.4 % ID/g | % ID/g Carotid (ApoE ligation model; 120 min post injection): 1.0 % ID/g | % ID/g Heart (ApoE ligation model; 120 min post injection): 2.6 % ID/g | % Retained Carotid (ApoE ligation model; 120 min post injection): 34% | % ID/g Blood (ApoE ligation model; 360 min post injection): 1.2 % ID/g | % ID/g Carotid (ApoE ligation model; 360 min post injection): 0.8 % ID/g | % ID/g Heart (ApoE ligation model; 360 min post injection): 1.0 % ID/g | % Retained Carotid (ApoE ligation model; 360 min post injection): 26% | Carotid: Blood (ApoE ligation model; 5 min post injection): 0.5 | Carotid: Heart (ApoE ligation model; 5 min post injection): 0.3 | Carotid: Blood (ApoE ligation model; 120 min post injection): 0.4 | Carotid: Heart (ApoE ligation model; 120 min post injection): 0.4 | Carotid: Blood (ApoE ligation model; 360 min post injection): 0.7 | Carotid: Heart (ApoE ligation model; 360 min post injection): 0.8

The remaining lines, values ahead:

Ki (MMP-1): 23.9 nM | Ki (MMP-12): 4.7 nM | Ki (MMP-2): 8.8 ± 3.1 nM | Ki (MMP-9): 2.85 ± 3.5 nM
Structure (SMILES): CNC(=O)C(CCC(=O)NCCOCCOCCOCCOCCOCCOCCOCCOCCOCCOCCOCCOCCC(=O)NCc1ccc(I)cc1)NC(=O)CC(CC(C)C)C(=O)NO (stereo not shown) [Compound 10]

Ki (MMP-1): 28.5 nM | Ki (MMP-12): 8.3 nM | Ki (MMP-2): 21 ± 2.2 nM | Ki (MMP-9): 7.15 ± 3.32 nM
Structure (SMILES): CNC(=O)C(CCC(=O)NCCOCCOCCOCCOCCOCCOCCOCCOCCOCCOCCOCCOCCC(=O)NCc1ccc(I)cc1)NC(=O)C(CC(=O)NO)CC(C)C (stereo not shown) [Compound 12]
